# Measurements as given in EP0583976A2, “Gastroprotective complexes with cyclodextrin” (Bristol-Myers Squibb Company, priority 1992, dated 1994).
# Columns and labels:
# beagles = test: Endoscopic scoring of aspirin-induced gastric irritation in beagles (scale 0 to 7), percent protection; type: in vivo; conditions: oral, with 975 mg aspirin (ASA), antacid about 15 mEq where present; endoscopy at two and four hours; versus Control A (ASA alone)
# Method: (§1) The product obtained above was tested as follows: 10 beagles were fasted overnight. At zero time, the stomach of each animal was endoscopically examined to assure a normal mucosa. Encapsulated compositions containing about 15 mEq MgO in the freshly prepared MgO-CD complex and 975 mg aspirin (ASA) were administered orally and flushed with 50 ml water.
# At two and four hours after administration of the encapsulated composition, the stomachs of the animals were endoscopically reexamined for gastric irritation. Irritation was measured according to a scale of 0 to 7, wherein zero was the condition of the mucosa for a normal stomach and a value of 7 represents massive hemorrhagic damage.
# Three control tests were also conducted. In Control A the animals were administered 975 mg ASA. In Control B the animals were administered 6.27 mg α-CD and 975 aspirin and in Control C the animals were administered 15 mEq MgO and 975 aspirin.
# (§2) wherein n is the number of animals, % Protection is the difference in irritation scores (on the scale of 0 to 7) between Control A and the MgO-CD complex divided by the irritation score for Control A multiplied by 100, and pH is the pH of the antrum fluid sample. The complex of the present invention is seen to have provided a substantial increase in percent protection coupled with a marked increase in pH over the controls.
# [1] = pH of gastric fluid sample obtained from the antrum after dosing; type: in vivo, beagles; conditions: oral, with 975 mg aspirin (ASA), antacid about 15 mEq where present
# Method: as §1
# In addition, a sample of gastric fluid was obtained from the antrum, and its general appearance noted and its pH measured.
# as §2
compound,measurement,setting,value
CaCO₃,% Protection,beagles,3.0 ± 5%
same,pH,[1],4.17 ± 0.90
O=C(O)O [MgCO₃],% Protection,beagles,2.1 ± 6.1%
same,pH,[1],3.33 ± 0.81
[OH][Al]([OH])[OH] [Al(OH)₃],% Protection,beagles,10.8 ± 4.6%
same,pH,[1],4.72 ± 0.85
"CC(=O)Oc1ccccc1C(=O)O [Control A, aspirin]",% Protection,beagles,0%
same,pH,[1],3.74 ± 0.44
